The numbers were not newly measured in patent US10627374B2, “LC-MS configuration for purification and detection of analytes having a broad range of hydrophobicites” (COHESIVE TECHNOLOGIES INC., priority 2010, dated 2020), which cites them from elsewhere.

Like-named read-outs stand apart in the source and are kept apart here.

A word on the logP: it is a log measure of how a compound divides between an organic and an aqueous phase. Consider `CO[C@H]1C[C@@H]2CC[C@@H](C)[C@@](O)(O2)C(=O)C(=O)N2CCCC[C@H]2C(=O)O[C@H]([C@H](C)C[C@@H]2CC[C@@H](OCCO)[C@H](OC)C2)CC(=O)[C@H](C)/C=C(\C)[C@@H](O)[C@@H](OC)C(=O)[C@H](C)C[C@H](C)/C=C/C=C/C=C/1C` [Everolimus], for which the lipophilicity (logP) runs as follows: (Table 1) 5.01; (Table 2) 5.01. Under “approximate”, the “log P” value is on record as “about 5.01”.

Consider `C[C@]12C=CC(=O)C=C1CC[C@@H]1[C@@H]2C(=O)C[C@@]2(C)[C@H]1CC[C@]2(O)C(=O)CO` [Prednisone], for which the logP runs as follows: (Table 1) 2.07; (Table 2) 2.07.

As to `C=CC[C@@H]1/C=C(\C)C[C@H](C)C[C@H](OC)[C@H]2O[C@@](O)(C(=O)C(=O)N3CCCC[C@H]3C(=O)O[C@H](/C(C)=C/[C@@H]3CC[C@@H](O)[C@H](OC)C3)[C@H](C)[C@@H](O)CC1=O)[C@H](C)C[C@@H]2OC` [Tacrolimus], the log partition coefficient (logP) was 3.3 (Table 1) and 3.3 (Table 2).

In the case of `CS(=O)(=O)OCCCCOS(C)(=O)=O` [Busulfan], the log partition coefficient (logP) (Table 1) is on record as −1.15 and the logP (Table 2) was −1.15.

Consider `CN(Cc1cnc2nc(N)nc(N)c2n1)c1ccc(C(=O)N[C@@H](CCC(=O)O)C(=O)O)cc1` [Methotrexate], for which the logP by setting is: (Table 1) 0.94; (Table 2) 0.94.

On to `O=c1[nH]cc(F)c(=O)[nH]1` [5-Fluorouracil], for which, where the note is “Table 2”, the logP is −0.9.

For `C[C@]12CCC(=O)C=C1CC[C@@H]1[C@@H]2[C@@H](O)C[C@@]2(C)[C@H]1CC[C@]2(O)C(=O)CO` [Cortisol (hydrocortisone)], the log partition coefficient (logP) (Table 1) is recorded as 1.26 and the logP (Table 2) is listed as 1.26.
